Measured values from PubChem BioAssay (NCI).
Where “and” joins values, the source holds several entries; their conditions need not be identical. Identical values can stand only once.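 Method: 48-hour compound exposure of cells in 96-well plates, five concentrations, linear interpolation of endpoints. GI50 marks 50% less growth. Definition used: TGI = concentration required for complete inhibition of growth.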

Experiments:
Experiment in all cases: growth of human tumour cells (NCI), 48 h
786-0 renal = test system: 786-0 renal
BT-549 breast = test system: BT-549 breast
DU-145 prostate = test system: DU-145 prostate
HCC-2998 colon = test system: HCC-2998 colon
HCT-15 colon = test system: HCT-15 colon
HOP-62 NSCLC = test system: HOP-62 NSCLC
HS 578T breast = test system: HS 578T breast
LOX IMVI melanoma = test system: LOX IMVI melanoma
M14 melanoma = test system: M14 melanoma
SF-539 CNS = test system: SF-539 CNS
SNB-19 CNS = test system: SNB-19 CNS
T-47D breast = test system: T-47D breast
UACC-62 melanoma = test system: UACC-62 melanoma
UO-31 renal = test system: UO-31 renal

Row | Structure (SMILES) | TGI (786-0 renal) | TGI (BT-549 breast) | TGI (DU-145 prostate) | TGI (HCC-2998 colon) | TGI (HCT-15 colon) | TGI (HOP-62 NSCLC) | TGI (HS 578T breast) | TGI (LOX IMVI melanoma) | TGI (M14 melanoma) | TGI (SF-539 CNS) | TGI (SNB-19 CNS) | TGI (T-47D breast) | TGI (UACC-62 melanoma) | TGI (UO-31 renal) | GI50 (DU-145 prostate) | GI50 (HCT-15 colon) | GI50 (T-47D breast) | GI50 (UACC-62 melanoma) | GI50 (UO-31 renal)
1 | NC1=CC(C(=O)c2ccncc2)c2nc3ccccc3nc21 (configuration not stated) | > 100 µM | > 100 µM | > 100 µM | > 100 µM | > 100 µM | > 100 µM | > 100 µM | 88.1 µM | > 100 µM | > 100 µM | > 100 µM | > 100 µM | > 100 µM | > 100 µM | – | – | – | – | –
2 | NC(C(F)(F)F)(C(F)(F)F)P(=O)(c1ccccc1)c1ccccc1 | > 100 µM | > 100 µM | > 100 µM | > 100 µM | > 100 µM | > 100 µM | > 100 µM | > 100 µM | > 100 µM | > 100 µM | > 100 µM | > 100 µM | > 100 µM | > 100 µM | – | – | – | – | –
3 | N#CC1=C(C#N)/C(=C(\C#N)C(C#N)C#N)N=C1N | > 100 µM | > 78.7 µM | > 100 µM | > 100 µM | 64.3 µM | > 66.6 µM | > 100 µM | 55.8 µM | 34.3 µM | 54.5 µM | > 100 µM | > 100 µM | 30.3 µM | > 100 µM | – | – | – | – | –
4 | Cc1ccc(S(=O)(=O)NC(=O)NCC(=O)NCC(=O)O)cc1 | > 100 µM | > 100 µM | > 100 µM | > 100 µM | > 100 µM | > 100 µM | > 100 µM | > 100 µM | > 100 µM | > 100 µM | > 100 µM | > 100 µM | > 100 µM | > 100 µM | – | – | – | – | –
5 | CN(C)c1ncnc2c1ncn2C1C=CC(COS(N)(=O)=O)C1 (configuration not stated) | > 100 µM | > 100 µM | > 100 µM | > 100 µM | > 100 µM | > 100 µM | > 100 µM | > 100 µM | > 100 µM | > 100 µM | > 100 µM | > 100 µM | > 100 µM | > 100 µM | – | – | – | – | –
6 | c1ccc([C@@H]2N[C@@]3(CO[Si](c4ccccc4)(c4ccccc4)c4ccccc4)CC[C@H]4CN[C@@H]2[C@H]43)cc1 | 25.9 µM | 35.3 µM | 21.8 µM | 3.05 µM | 10.4 µM | 31.2 µM | 36.3 µM | 24 µM | 17.4 µM | 28.6 µM | 31.5 µM | 16.7 µM | 28.2 µM | 22.8 µM | – | – | – | – | –
7 | CN1CC2=C(NC(=S)NC2c2ccc(Cl)cc2)/C(=C/c2ccc(Cl)cc2)C1 (configuration not stated) | 52.3 µM | 48.6 µM | 30.5 µM | 34 µM | 37.5 µM | 36.4 µM | 40.3 µM | 35.8 µM | 33.6 µM | 62.9 µM | – | 32.3 µM | 33.8 µM | > 100 µM | – | – | – | – | –
8 | CC1=CCC[C@@](C)(O)[C@@H]2C[C@H]3C(CSc4ccccc4)C(=O)O[C@H]3[C@@H](O2)[C@H](C)CCC1 (some centres not stated) | 67.5 µM | 46.2 µM | 76.6 µM | 30.3 µM | 67.9 µM | 34.5 µM | 56.4 µM | 81.6 µM | 26.9 µM | 30.9 µM | 26.7 µM | 93.7 µM | 34.1 µM | 24.1 µM | – | – | – | – | –
9 | CC(=O)OCC1OC(n2c3c(c(-c4ccc(Cl)cc4)c(C#N)c2=S)C(=O)CC(C)(C)C3)C(OC(C)=O)C(OC(C)=O)C1OC(C)=O (configuration not stated) | > 88.7 µM | 12.8 µM | > 100 µM | 27.9 µM | 53.2 µM | > 100 µM | 62.4 µM | 29.8 µM | > 100 µM | > 68.7 µM | > 86.8 µM | > 27.7 µM | 27.8 µM | > 78.5 µM | – | – | – | – | –
10 | CN(C)CCOC1(Cc2ccc(Cl)cc2Cl)CCC(C(C)(C)C)CC1 (configuration not stated) | 3.33 µM and 2.98 µM | 3.16 µM and 3.25 µM | 5.91 µM and 6.45 µM | 3.37 µM and 3.23 µM | 3.44 µM and 3.06 µM | 3.06 µM and 3.32 µM | 5.2 µM and 5.27 µM | 2.97 µM and 3.06 µM | 3.25 µM and 3.11 µM | 14.5 µM and 3.46 µM | 3.44 µM and 3.74 µM | 4.42 µM and 4.24 µM | 3.9 µM and 9.66 µM | 6.27 µM and 2.83 µM | 1890 nM and 2680 nM | 1570 nM | 1920 nM and 2090 nM | 3.7 µM | 2170 nM and 1450 nM
11 | COc1cc(/C=C2/SC(c3ccccc3)N(c3ccc(Cl)cc3)C2=O)cc(OC)c1OC (configuration not stated) | > 100 µM | > 100 µM | > 100 µM | > 100 µM | > 100 µM | > 100 µM | > 100 µM | > 100 µM | > 63.3 µM | > 100 µM | > 100 µM | > 100 µM | > 100 µM | > 100 µM | – | – | – | – | –
12 | CC(=O)n1nc(-c2nc3ccccc3nc2Cl)cc1Cl | 78.8 µM | 28.8 µM | 43.1 µM | > 100 µM | 57.3 µM | 73.8 µM | > 91.7 µM | 33.3 µM | 19.4 µM | 10.1 µM | > 92 µM | > 100 µM | > 100 µM | 4.79 µM | – | – | – | – | –
13 | Cc1cnc2[nH]c(-c3ccc(F)cc3)cc(=O)c2c1 | > 100 µM | > 100 µM | > 100 µM | > 100 µM | > 100 µM | > 83.1 µM | > 100 µM | > 100 µM | > 100 µM | > 100 µM | > 100 µM | > 100 µM | > 100 µM | > 100 µM | – | – | – | – | –
14 | COC(=O)/C(C#N)=C1\NC(=O)CC(c2ccccc2)C1C#N (configuration not stated) | > 100 µM | > 100 µM | > 100 µM | > 100 µM | > 100 µM | > 100 µM | > 100 µM | > 100 µM | > 100 µM | > 100 µM | > 100 µM | > 100 µM | > 100 µM | > 100 µM | – | – | – | – | –
15 | CCCCCC(=O)OCC(=O)[C@H]1[C@H](C)C[C@H]2[C@@H]3C[C@H](F)C4=C/C(=N/OC(=O)c5cccc6c(=O)c7ccccc7[nH]c56)C=C[C@]4(C)[C@H]3[C@@H](O)C[C@@]21C | > 100 µM | 66.5 µM | > 100 µM | 82.4 µM | > 100 µM | > 100 µM | > 100 µM | 35.7 µM | 77.9 µM | > 100 µM | > 100 µM | 62.1 µM | 32 µM | 50 µM | – | – | – | – | –
16 | COc1ccc(-c2c3c(n(C4OC(CO)C(O)C(O)C4O)c(=S)c2C#N)CC(C)(C)CC3=O)cc1 (configuration not stated) | > 100 µM | > 100 µM | > 100 µM | > 100 µM | > 100 µM | > 100 µM | > 100 µM | > 100 µM | > 100 µM | > 100 µM | > 100 µM | > 100 µM | > 100 µM | > 100 µM | – | – | – | – | –
17 | CS(=O)(=O)c1[nH]nc2[nH]c(=O)[nH]c(=O)c12 | > 10 µM | > 10 µM | > 10 µM | > 10 µM | > 10 µM | > 10 µM | > 10 µM | > 10 µM | > 10 µM | > 10 µM | > 10 µM | > 10 µM | > 10 µM | – | – | – | – | – | –
18 | O=C1SC(c2ccc(Cl)cc2)(c2ccc(Cl)cc2)c2ccccc21 | > 100 µM | > 100 µM | > 100 µM | > 100 µM | > 100 µM | > 100 µM | > 100 µM | > 100 µM | > 100 µM | > 100 µM | > 100 µM | > 100 µM | > 100 µM | > 100 µM | – | – | – | – | –
19 | Cc1ccc(S(=O)(=O)[N-]C2C(=O)c3ccccc3C(=O)C2[n+]2cccc(C(N)=O)c2)cc1 (configuration not stated) | > 100 µM | > 100 µM | > 100 µM | > 100 µM | > 100 µM | > 100 µM | > 100 µM | > 100 µM | > 100 µM | > 100 µM | > 100 µM | > 100 µM | > 100 µM | > 100 µM | – | – | – | – | –
20 | COc1cc(C)cc2c1C(=O)C(Br)=CC2=O | 8.16 µM | 23.2 µM | 32.4 µM | 35 µM | 40.6 µM | 32.5 µM | 71.5 µM | 25.7 µM | 14.1 µM | 28.5 µM | 30.2 µM | 4.75 µM | 23.3 µM | 11.3 µM | – | – | – | – | –
21 | O=c1oc2ccccc2cc1-c1nnc(-c2ccccc2)s1 | > 66.6 µM | > 100 µM | > 100 µM | > 100 µM | > 100 µM | > 57.1 µM | > 100 µM | > 100 µM | > 100 µM | > 41.8 µM | > 84.7 µM | > 85.2 µM | > 100 µM | > 100 µM | – | – | – | – | –
22 | COc1ccc2nc3cc([N+](=O)[O-])ccc3c(NNc3ccc(Cl)cc3)c2c1 | 53.6 µM | > 92.1 µM | > 96.5 µM | 60.6 µM | > 100 µM | > 78.8 µM | > 100 µM | > 100 µM | > 92.5 µM | 97.5 µM | > 100 µM | > 100 µM | > 65.9 µM | > 100 µM | – | – | – | – | –
23 | OCCSCc1cc2c(O)c(c1)Cc1cc(CSCCO)cc(c1O)Cc1cc(CSCCO)cc(c1O)Cc1cc(CSCCO)cc(c1O)C2 | 12.5 µM | 11.7 µM | 23.5 µM | 23.1 µM | 33 µM | 15.6 µM | 42.8 µM | 11.9 µM | 12.7 µM | 12.6 µM | 15.9 µM | 26.3 µM | – | 28.3 µM | – | – | – | – | –
24 | Nc1nc(Cl)cc(NCC2(CO)CCC2)n1 | > 100 µM | > 100 µM | > 100 µM | > 100 µM | > 100 µM | > 100 µM | > 100 µM | > 100 µM | – | > 100 µM | > 100 µM | > 100 µM | > 100 µM | > 100 µM | – | – | – | – | –
